This is an account of results in BigSolDB 2.1.

For orientation: solubility (mole fraction) means solubility expressed as the solute's share of all molecules. On to `O=C(O)/C=C/c1ccc(O)cc1`, for which the solubility (mole fraction) amounted to 0.0358 (in ethanol, 283.15 K); 0.0381 (in ethanol, 288.15 K); 0.0414 (in ethanol, 293.15 K); 0.0461 (in ethanol, 298.15 K); 0.0514 (in ethanol, 303.15 K); 0.0559 (in ethanol, 308.15 K). Also, the solubility (mole fraction) reads like this: (in ethanol, 313.15 K) 0.0621; (in ethanol, 318.15 K) 0.0675; (in ethanol, 323.15 K) 0.0735; (in ethyl acetate, 283.15 K) 0.00928; (in ethyl acetate, 288.15 K) 0.0101; (in ethyl acetate, 293.15 K) 0.0114. Also, the solubility (mole fraction) turned out to be 0.0129 (in ethyl acetate, 298.15 K); 0.0145 (in ethyl acetate, 303.15 K); 0.0164 (in ethyl acetate, 308.15 K); 0.0185 (in ethyl acetate, 313.15 K); 0.0208 (in ethyl acetate, 318.15 K); 0.0232 (in ethyl acetate, 323.15 K).

For the compound `COc1cc(C=O)ccc1O`, the solubility (mole fraction) by setting is: (in ethanol, 283.15 K) 0.0673; (in ethanol, 288.15 K) 0.0698; (in ethanol, 293.15 K) 0.0734; (in ethanol, 298.15 K) 0.0785; (in ethanol, 303.15 K) 0.082; (in ethanol, 308.15 K) 0.0854. Moreover, the solubility (mole fraction) runs as follows: (in ethanol, 313.15 K) 0.0902; (in ethanol, 318.15 K) 0.0938; (in ethanol, 323.15 K) 0.0985; (in ethyl acetate, 283.15 K) 0.109; (in ethyl acetate, 288.15 K) 0.115; (in ethyl acetate, 293.15 K) 0.118. In addition, the solubility (mole fraction) worked out at 0.125 (in ethyl acetate, 298.15 K); 0.128 (in ethyl acetate, 303.15 K); 0.133 (in ethyl acetate, 308.15 K); 0.137 (in ethyl acetate, 313.15 K); 0.142 (in ethyl acetate, 318.15 K); 0.15 (in ethyl acetate, 323.15 K).
